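Protocol summary: plate cells (96-well), add compound at 5 concentrations, incubate 48 h, interpolate endpoints linearly. TGI denotes the concentration required for complete inhibition of growth.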

For 15 molecules, TGI results are on record in PubChem BioAssay (NCI).

Some test systems named below: DU-145 prostate; RXF 393 renal; SNB-19 CNS; SW-620 colon; UACC-257 melanoma; NCI-H460 lung; COLO 205 colon; SK-MEL-5 melanoma; NCI-H522 lung; UO-31 renal.
What all share (assay): DTP human tumour cell line panel, 48 h

In the case of `O=C(CSc1n[nH]c(=O)[nH]c1=O)NNC(=O)c1cccc2nc3ccccc3nc12`, the TGI in the test with DU-145 prostate, in the test on RXF 393 renal, in the test on SNB-19 CNS, in the test with SW-620 colon, in the test with UACC-257 melanoma and with NCI-H460 lung was above 100 µM throughout. In addition, the TGI was above 100 µM in the test with COLO 205 colon and 45 µM in the test with SK-MEL-5 melanoma.
For the molecule `O=C(N/N=C/c1cc(Br)cc(Br)c1[O-])c1ccccc1O.O=C(N/N=C/c1cc(Br)cc(Br)c1[O-])c1ccccc1O.[Fe+2]`, the TGI with RXF 393 renal is 20.6 µM; in the test on SNB-19 CNS, 20.4 µM; in the test on SW-620 colon, 19.7 µM; in the test with NCI-H460 lung, 22.2 µM; in the test with COLO 205 colon it was 35.8 µM; in the test with NCI-H522 lung, 11.4 µM. Besides, the TGI in the test on SK-MEL-5 melanoma worked out at 23.4 µM; in the test on UO-31 renal it was 25.3 µM.
For `COc1c(Br)cc(CC(N)=O)c(O)c1Br`, the TGI in the test on RXF 393 renal, with SNB-19 CNS, in the test on SW-620 colon, with UACC-257 melanoma, in the test with COLO 205 colon and with NCI-H522 lung was above 100 µM throughout. Besides, the TGI in the test on SK-MEL-5 melanoma and in the test with UO-31 renal was above 100 µM throughout.
With `O=C1C=CC(=O)c2c(O)c(NCCc3ccc(O)cc3)c(Cl)c(O)c21`, the TGI in the test on DU-145 prostate, with SNB-19 CNS, in the test with SW-620 colon, with UACC-257 melanoma, in the test with NCI-H460 lung and in the test on COLO 205 colon was above 10 µM each time. Also, the TGI in the test on NCI-H522 lung and with SK-MEL-5 melanoma was above 10 µM throughout.
With `O=C(CC1=NCCN1)c1ccccc1`, the TGI in the test with RXF 393 renal is above 750 µM; in the test with SNB-19 CNS, above 750 µM; in the test on SW-620 colon, above 750 µM; with UACC-257 melanoma, above 750 µM; in the test on NCI-H460 lung, above 511 µM; with COLO 205 colon, above 750 µM. For the same molecule, the TGI in the test with NCI-H522 lung, in the test on SK-MEL-5 melanoma and with UO-31 renal was above 750 µM in each case.
Turning to `COc1ccc2c(c1)CN1C(=N2)CSC1c1ccccc1Cl` (centres undefined), the TGI in the test on RXF 393 renal was 29.7 µM; with SNB-19 CNS, above 100 µM; in the test on SW-620 colon, 41.7 µM; in the test on UACC-257 melanoma, 28.8 µM; in the test with NCI-H460 lung it was 32.7 µM; in the test with COLO 205 colon, 28.3 µM. Also, the values for the concentration for total growth inhibition (TGI) in the test on NCI-H522 lung, in the test on SK-MEL-5 melanoma and in the test with UO-31 renal were 39.2 µM, 28.5 µM and 38.3 µM, respectively.
Take `NC(N)=Nc1ncccc1[N+](=O)[O-]`: the TGI with RXF 393 renal is above 100 µM; with SNB-19 CNS, above 100 µM; with SW-620 colon, above 100 µM; in the test on UACC-257 melanoma, above 31.6 µM; with NCI-H460 lung, above 100 µM; with COLO 205 colon, 57.2 µM. In addition, the TGI in the test with NCI-H522 lung, in the test on SK-MEL-5 melanoma and in the test on UO-31 renal was above 100 µM in each case.
With `Brc1ccc2c(-c3csc(-c4c[nH]c5cc(Br)ccc45)n3)c[nH]c2c1`, the TGI is 47.3 µM in the test with DU-145 prostate; 77.1 µM in the test on RXF 393 renal; 58.2 µM in the test on SNB-19 CNS; 66.5 µM with SW-620 colon; above 100 µM in the test on UACC-257 melanoma; 53.8 µM in the test on NCI-H460 lung. Further, the TGI with COLO 205 colon, in the test on SK-MEL-5 melanoma and in the test with UO-31 renal was above 100 µM each time.
Turning to `COCC1OC(N2C(=O)NC(=O)[C@@H]3C=C4CCCCC4=C[C@@H]32)C(OC)C1OC` (some centres undefined), the TGI in the test with DU-145 prostate, in the test with SNB-19 CNS, in the test on SW-620 colon, in the test on UACC-257 melanoma, in the test on NCI-H460 lung and with NCI-H522 lung was above 100 µM each time. Besides, the TGI in the test on UO-31 renal is above 100 µM.
For the molecule `COC1(OC)CCCCC2c3cccc(OC(C)=O)c3C21OC(C)=O` (centres undefined), the TGI with SNB-19 CNS, in the test on SW-620 colon, in the test on UACC-257 melanoma, in the test with COLO 205 colon, in the test with NCI-H522 lung and in the test with SK-MEL-5 melanoma was above 100 µM each time. In the test on UO-31 renal, this molecule displayed a TGI above 100 µM.
In the case of `Brc1cc2nn(-c3ccccc3)nc2c2nonc12`, the TGI with DU-145 prostate, in the test with SNB-19 CNS, in the test with SW-620 colon, with UACC-257 melanoma, with NCI-H460 lung and with COLO 205 colon was above 100 µM throughout. The concentration for total growth inhibition (TGI) in the test with NCI-H522 lung, in the test with SK-MEL-5 melanoma and with UO-31 renal was above 100 µM each time.
As to `C=C1CC(C)(c2ccc(Nc3nc4ccccc4c4occc34)cc2)OC1=O` (centres undefined), the concentration for total growth inhibition (TGI) in the test on DU-145 prostate turned out to be 28.4 µM; with RXF 393 renal, 4.92 µM; in the test on SNB-19 CNS it was 34.6 µM; with UACC-257 melanoma, 0.164 µM; with NCI-H460 lung, 51.5 µM; with COLO 205 colon it was 16.2 µM. In the test on SK-MEL-5 melanoma, this molecule gave a TGI of 19.6 µM.
As to `O=C(Nc1cccc(O)c1)C(=O)C(C(=O)c1ccccc1F)C1OC(=O)c2ccccc21` (centres undefined), the TGI with RXF 393 renal is 39.8 µM; in the test on SNB-19 CNS, 68 µM; in the test with SW-620 colon, above 100 µM; in the test on UACC-257 melanoma, above 100 µM; with NCI-H460 lung, 94.9 µM; with COLO 205 colon, 48.3 µM. Further, the total growth inhibition concentration (TGI) in the test with NCI-H522 lung was 63.9 µM; in the test on SK-MEL-5 melanoma it was above 100 µM; in the test on UO-31 renal, 96.8 µM.
Consider `COC(=O)c1ccc(C=Nc2ccc(S(N)(=O)=O)cc2)cc1`, for which the TGI in the test with DU-145 prostate, in the test on RXF 393 renal, in the test with SNB-19 CNS, with UACC-257 melanoma, with NCI-H460 lung and in the test with COLO 205 colon was above 100 µM in each case. In addition, the TGI with SK-MEL-5 melanoma and in the test on UO-31 renal was above 100 µM each time.
Take `Cn1c([O-])nc(-n2cc[n+](C)c2)cc1=O`: the TGI in the test on DU-145 prostate, in the test on RXF 393 renal, in the test with SNB-19 CNS, in the test with SW-620 colon, in the test with UACC-257 melanoma and with NCI-H460 lung was above 100 µM throughout. The total growth inhibition concentration (TGI) in the test with COLO 205 colon, in the test with SK-MEL-5 melanoma and with UO-31 renal was above 100 µM each time.
